Literature values in patent US5763196A, “Assays using cross-linked polypeptide fragments of β-galactosidase” (priority 1996, dated 1998).

Test system: interleukin-1-β converting enzyme (ICE protease)

SMILES	inhibition of ICE protease (in words) (Nature 375:78-81 (1995))	minimal and best peptide substrate found to date (Thornberry, Nature 356:768-74 (1992))
CC(=O)N[C@@H](Cc1ccc(O)cc1)C(=O)N[C@H](C(=O)N[C@@H](C)C(=O)N[C@@H](CC(=O)O)C(=O)CCl)C(C)C [Ac-Tyr-Val-Ala-Asp-*]	potent inhibitor	
CNC(=O)[C@H](CC(=O)O)NC(=O)[C@H](C)NC(=O)[C@@H](NC(=O)[C@H](Cc1ccc(O)cc1)NC(C)=O)C(C)C [Ac-Tyr-Val-Ala-Asp-NH-CH3]		minimal and best peptide substrate
